The values below come from BindingDB's records for patent US20230286970 (Italfarmaco, 2023).

The IC50 is the point on the concentration scale where inhibition reaches its midpoint.

Holding throughout (experiment): Enzymatic Activity Assay
In one experiment the target is T1, Histone deacetylase 7 (Homo sapiens, UniProt Q8WUI4).
T1 sequence (Q8WUI4 whole entry): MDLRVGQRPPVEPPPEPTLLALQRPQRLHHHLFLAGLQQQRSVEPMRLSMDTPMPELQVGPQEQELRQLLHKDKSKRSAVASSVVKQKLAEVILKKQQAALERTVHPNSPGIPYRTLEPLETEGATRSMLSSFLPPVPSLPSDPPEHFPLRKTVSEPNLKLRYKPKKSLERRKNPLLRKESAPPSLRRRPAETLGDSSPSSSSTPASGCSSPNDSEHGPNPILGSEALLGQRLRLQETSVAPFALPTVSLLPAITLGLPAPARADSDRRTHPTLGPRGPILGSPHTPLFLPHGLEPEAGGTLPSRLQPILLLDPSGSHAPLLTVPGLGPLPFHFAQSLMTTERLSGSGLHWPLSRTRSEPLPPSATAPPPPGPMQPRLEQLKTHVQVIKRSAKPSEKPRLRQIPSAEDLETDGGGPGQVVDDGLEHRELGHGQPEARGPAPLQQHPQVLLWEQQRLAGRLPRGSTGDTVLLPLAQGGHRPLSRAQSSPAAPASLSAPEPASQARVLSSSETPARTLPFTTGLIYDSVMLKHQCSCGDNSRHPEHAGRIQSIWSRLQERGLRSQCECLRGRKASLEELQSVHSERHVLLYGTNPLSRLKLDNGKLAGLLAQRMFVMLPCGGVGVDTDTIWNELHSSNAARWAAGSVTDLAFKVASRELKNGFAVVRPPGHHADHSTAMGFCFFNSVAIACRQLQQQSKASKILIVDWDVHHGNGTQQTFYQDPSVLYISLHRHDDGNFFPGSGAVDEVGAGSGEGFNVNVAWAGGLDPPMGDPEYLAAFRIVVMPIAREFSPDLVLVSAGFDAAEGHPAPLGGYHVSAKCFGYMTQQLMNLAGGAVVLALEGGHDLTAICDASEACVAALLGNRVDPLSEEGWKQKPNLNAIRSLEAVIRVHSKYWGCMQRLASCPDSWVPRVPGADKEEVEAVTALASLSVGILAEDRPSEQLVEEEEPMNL
As to the method:
(§1) After a period of preincubation (incubation times and temperatures vary for different isoforms and are shown in table 1) 25 μL of solution containing the substrate were added. […] Enzymatic activity on recombinant human HDAC6 and HDAC1 was evaluated (Table 2) for each synthesized compound.

A further experiment deals with Histone deacetylase 4 (Homo sapiens, UniProt P56524). As to the method:
as §1

A further experiment has as its target Histone deacetylase 2 (Homo sapiens, UniProt Q92769). As to the method: as §1
For experiment [1], the target named is T2, Polyamine deacetylase HDAC10 (Homo sapiens, UniProt Q969S8).
T2 sequence (Q969S8 whole entry): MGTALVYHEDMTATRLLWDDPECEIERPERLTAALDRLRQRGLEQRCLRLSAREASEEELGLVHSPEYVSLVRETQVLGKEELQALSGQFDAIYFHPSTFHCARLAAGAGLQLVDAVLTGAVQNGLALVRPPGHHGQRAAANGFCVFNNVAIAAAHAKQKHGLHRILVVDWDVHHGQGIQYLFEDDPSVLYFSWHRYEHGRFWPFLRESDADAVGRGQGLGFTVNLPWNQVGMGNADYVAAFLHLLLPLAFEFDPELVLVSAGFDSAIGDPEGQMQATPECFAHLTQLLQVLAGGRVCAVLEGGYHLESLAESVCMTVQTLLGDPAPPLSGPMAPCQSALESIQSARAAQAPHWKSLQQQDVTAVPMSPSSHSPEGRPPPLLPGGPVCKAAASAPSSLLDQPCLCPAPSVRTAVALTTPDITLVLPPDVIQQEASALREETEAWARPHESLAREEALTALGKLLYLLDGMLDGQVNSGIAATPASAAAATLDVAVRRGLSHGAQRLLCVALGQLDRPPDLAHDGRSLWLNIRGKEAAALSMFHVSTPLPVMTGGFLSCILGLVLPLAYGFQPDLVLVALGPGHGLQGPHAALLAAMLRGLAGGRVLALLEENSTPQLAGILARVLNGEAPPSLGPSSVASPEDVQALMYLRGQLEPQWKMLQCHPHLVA
As to the method: as §1

A further experiment addresses Histone deacetylase 3 (Homo sapiens, UniProt O15379). As to the method:
as §1

The target in another experiment is Histone deacetylase 1 (Homo sapiens, UniProt Q13547). As to the method: as §1
Chain of Histone deacetylase 1 (Q13547 whole entry): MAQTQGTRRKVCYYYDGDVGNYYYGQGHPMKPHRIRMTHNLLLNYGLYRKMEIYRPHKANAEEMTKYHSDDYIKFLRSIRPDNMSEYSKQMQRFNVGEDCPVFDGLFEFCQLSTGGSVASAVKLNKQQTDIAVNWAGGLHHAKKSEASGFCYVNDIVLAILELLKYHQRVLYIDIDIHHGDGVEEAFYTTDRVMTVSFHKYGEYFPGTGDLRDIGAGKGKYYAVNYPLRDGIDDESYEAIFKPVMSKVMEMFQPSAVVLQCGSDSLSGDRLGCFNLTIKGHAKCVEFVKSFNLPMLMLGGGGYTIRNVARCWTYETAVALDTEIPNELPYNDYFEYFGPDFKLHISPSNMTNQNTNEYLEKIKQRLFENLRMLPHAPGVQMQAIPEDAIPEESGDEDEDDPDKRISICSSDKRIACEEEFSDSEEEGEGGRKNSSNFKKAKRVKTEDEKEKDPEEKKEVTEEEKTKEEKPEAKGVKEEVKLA
In a further experiment the target is Histone deacetylase 5 (Homo sapiens, UniProt Q9UQL6). As to the method: as §1
Chain of Histone deacetylase 5 (Q9UQL6 whole entry): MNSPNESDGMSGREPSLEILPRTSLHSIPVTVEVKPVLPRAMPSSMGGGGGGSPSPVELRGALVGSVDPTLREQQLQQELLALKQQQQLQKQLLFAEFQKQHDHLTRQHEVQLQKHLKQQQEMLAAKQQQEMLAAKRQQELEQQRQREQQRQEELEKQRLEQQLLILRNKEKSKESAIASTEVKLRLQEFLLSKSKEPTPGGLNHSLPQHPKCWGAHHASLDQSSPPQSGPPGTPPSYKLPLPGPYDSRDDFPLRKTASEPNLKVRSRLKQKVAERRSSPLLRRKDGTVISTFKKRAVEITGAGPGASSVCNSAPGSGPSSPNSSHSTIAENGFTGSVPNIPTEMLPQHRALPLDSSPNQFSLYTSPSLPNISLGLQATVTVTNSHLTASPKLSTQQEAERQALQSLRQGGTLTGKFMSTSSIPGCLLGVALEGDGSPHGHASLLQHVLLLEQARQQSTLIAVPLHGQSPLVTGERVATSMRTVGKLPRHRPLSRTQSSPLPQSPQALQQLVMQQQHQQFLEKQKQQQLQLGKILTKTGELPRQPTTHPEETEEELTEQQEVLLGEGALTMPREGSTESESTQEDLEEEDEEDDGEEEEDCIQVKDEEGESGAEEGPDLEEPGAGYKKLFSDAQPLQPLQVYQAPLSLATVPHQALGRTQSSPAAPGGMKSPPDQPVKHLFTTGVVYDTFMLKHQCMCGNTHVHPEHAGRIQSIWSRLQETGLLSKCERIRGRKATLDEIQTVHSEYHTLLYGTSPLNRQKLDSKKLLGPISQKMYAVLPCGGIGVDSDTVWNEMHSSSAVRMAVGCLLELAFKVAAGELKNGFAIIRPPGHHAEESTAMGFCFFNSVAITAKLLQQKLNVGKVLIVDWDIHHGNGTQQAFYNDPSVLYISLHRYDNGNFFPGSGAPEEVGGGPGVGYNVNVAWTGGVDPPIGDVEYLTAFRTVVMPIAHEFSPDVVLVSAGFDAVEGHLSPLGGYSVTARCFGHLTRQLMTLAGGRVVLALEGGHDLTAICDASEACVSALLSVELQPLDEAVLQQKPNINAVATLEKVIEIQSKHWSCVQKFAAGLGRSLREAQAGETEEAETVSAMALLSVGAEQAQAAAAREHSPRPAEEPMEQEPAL
Another experiment deals with Histone deacetylase 9 (Homo sapiens, UniProt Q9UKV0). As to the method: as §1
Chain of Histone deacetylase 9 (Q9UKV0 whole entry): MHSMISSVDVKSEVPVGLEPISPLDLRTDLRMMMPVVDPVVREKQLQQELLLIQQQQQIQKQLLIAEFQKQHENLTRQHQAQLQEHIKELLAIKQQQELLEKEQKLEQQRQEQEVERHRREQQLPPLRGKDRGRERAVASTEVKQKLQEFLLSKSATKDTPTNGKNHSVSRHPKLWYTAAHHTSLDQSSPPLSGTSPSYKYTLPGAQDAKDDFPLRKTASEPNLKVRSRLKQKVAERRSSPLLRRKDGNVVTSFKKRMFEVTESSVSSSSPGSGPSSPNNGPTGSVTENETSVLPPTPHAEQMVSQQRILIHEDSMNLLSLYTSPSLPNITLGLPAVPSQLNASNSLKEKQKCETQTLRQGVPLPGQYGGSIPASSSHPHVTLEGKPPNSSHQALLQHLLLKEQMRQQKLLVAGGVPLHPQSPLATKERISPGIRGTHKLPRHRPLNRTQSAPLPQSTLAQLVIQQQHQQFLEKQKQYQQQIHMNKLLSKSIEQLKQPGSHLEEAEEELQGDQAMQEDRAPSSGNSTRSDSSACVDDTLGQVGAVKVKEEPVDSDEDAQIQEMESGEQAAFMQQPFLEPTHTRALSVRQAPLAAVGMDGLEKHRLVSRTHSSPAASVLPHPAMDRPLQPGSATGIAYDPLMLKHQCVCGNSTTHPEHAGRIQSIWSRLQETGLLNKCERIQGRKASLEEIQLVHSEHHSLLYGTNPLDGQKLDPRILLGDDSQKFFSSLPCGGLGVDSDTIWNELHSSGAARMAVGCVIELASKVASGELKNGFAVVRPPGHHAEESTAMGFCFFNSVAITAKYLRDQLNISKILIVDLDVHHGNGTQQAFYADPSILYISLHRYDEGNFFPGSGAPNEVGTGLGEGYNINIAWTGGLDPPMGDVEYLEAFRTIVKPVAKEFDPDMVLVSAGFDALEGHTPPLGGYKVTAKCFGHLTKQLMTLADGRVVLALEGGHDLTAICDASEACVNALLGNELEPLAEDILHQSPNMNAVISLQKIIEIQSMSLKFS
Another experiment addresses T3, Histone deacetylase 8 (Homo sapiens, UniProt Q9BY41).
T3 sequence (Q9BY41 whole entry): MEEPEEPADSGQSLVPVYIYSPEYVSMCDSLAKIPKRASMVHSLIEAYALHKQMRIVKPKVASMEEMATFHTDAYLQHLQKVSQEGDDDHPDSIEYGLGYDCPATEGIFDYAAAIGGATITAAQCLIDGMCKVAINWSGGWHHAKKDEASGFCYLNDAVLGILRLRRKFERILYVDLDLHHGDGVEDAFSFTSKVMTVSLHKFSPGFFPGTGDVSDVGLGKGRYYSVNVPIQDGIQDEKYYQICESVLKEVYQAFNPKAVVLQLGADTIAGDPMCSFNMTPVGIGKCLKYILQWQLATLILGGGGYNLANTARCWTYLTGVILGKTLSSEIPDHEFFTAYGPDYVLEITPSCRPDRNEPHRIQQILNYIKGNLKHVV
As to the method: as §1

Another experiment deals with T4, Histone deacetylase 11 (Homo sapiens, UniProt Q96DB2).
T4 sequence (Q96DB2 whole entry): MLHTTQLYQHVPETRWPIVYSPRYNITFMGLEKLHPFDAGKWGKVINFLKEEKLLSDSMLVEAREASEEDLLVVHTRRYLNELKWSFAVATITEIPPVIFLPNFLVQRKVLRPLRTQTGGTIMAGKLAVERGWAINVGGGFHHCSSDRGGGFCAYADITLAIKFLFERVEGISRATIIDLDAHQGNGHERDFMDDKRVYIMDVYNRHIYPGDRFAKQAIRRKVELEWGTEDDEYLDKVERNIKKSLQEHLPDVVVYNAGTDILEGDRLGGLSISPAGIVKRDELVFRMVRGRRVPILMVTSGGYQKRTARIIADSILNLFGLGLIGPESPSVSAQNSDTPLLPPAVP
As to the method: as §1

Chain of Histone deacetylase 2 (Q92769 whole entry): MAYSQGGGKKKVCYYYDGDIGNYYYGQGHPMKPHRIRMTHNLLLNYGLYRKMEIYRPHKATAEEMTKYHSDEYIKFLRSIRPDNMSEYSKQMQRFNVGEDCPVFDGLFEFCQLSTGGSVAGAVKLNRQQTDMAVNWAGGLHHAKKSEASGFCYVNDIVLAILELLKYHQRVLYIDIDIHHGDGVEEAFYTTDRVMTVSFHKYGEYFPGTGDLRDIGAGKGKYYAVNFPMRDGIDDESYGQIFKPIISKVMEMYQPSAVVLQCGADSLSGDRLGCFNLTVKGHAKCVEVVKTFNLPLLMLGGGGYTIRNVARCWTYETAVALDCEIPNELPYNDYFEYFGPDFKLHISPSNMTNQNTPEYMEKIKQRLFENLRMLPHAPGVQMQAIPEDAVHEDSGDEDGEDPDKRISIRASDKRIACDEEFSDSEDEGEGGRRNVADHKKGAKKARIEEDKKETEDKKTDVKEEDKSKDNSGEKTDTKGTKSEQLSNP
Chain of Histone deacetylase 3 (O15379 whole entry): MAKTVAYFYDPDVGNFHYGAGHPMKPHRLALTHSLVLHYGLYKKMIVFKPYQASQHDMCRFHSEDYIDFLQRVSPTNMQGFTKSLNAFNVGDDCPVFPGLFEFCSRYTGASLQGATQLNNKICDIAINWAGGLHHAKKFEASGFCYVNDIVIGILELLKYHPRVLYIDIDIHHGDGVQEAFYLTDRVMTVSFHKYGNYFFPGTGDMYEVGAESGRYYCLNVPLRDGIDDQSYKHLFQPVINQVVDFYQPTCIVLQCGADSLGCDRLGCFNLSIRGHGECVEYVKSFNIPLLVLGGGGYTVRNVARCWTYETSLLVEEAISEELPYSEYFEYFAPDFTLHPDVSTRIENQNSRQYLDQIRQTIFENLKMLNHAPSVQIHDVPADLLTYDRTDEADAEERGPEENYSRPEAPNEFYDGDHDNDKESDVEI
Chain of Histone deacetylase 4 (P56524 whole entry): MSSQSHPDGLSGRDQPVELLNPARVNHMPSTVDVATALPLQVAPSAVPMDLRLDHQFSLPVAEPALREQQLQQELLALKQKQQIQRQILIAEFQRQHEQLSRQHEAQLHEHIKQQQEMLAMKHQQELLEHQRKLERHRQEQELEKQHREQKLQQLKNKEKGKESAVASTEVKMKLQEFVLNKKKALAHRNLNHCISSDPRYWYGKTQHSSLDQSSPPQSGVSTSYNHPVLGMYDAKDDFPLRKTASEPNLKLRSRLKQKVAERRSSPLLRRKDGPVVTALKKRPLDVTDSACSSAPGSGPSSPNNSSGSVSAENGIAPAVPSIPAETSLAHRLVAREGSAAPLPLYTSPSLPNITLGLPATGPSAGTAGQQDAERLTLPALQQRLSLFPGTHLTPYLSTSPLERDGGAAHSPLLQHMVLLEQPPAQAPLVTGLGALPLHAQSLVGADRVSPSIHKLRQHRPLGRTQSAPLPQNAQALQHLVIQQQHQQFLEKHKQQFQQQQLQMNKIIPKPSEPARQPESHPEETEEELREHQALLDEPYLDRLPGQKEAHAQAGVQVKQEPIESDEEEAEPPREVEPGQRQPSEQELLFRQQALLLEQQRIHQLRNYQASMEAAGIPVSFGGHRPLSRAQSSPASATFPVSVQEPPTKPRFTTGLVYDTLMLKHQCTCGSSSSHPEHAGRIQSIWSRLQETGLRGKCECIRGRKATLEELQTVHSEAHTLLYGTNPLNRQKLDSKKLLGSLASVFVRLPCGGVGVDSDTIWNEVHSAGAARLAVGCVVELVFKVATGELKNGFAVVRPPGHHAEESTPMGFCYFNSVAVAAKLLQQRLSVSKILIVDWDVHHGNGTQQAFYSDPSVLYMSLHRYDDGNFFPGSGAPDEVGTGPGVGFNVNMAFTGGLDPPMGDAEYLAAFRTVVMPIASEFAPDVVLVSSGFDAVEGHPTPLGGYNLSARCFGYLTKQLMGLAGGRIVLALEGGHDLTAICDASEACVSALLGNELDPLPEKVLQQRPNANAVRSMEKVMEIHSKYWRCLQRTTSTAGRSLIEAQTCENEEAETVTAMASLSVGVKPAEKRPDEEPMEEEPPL

As to `Nc1nc2ccc(-c3cn(Cc4ccc(-c5nnc(C(F)F)o5)cc4)nn3)cc2s1` [US20230286970, Compound 14], the IC50 on Histone deacetylase 7 is above 30 µM; on Histone deacetylase 4, above 30 µM; at Histone deacetylase 2, above 30 µM; in experiment [1], above 30 µM; on Histone deacetylase 3 it was above 30 µM; at Histone deacetylase 1 it was above 200 µM. The IC50 was above 30 µM on Histone deacetylase 5, above 30 µM at Histone deacetylase 9, above 200 µM against Histone deacetylase 8 and above 30 µM on Histone deacetylase 11.

As for `Nc1ccc(-c2cn(Cc3ccc(-c4nnc(C(F)F)o4)c(F)c3)nn2)cn1` [US20230286970, Compound 15], the IC50 against Histone deacetylase 7 is above 30 µM; on Histone deacetylase 4, above 30 µM; on Histone deacetylase 2, above 30 µM; in experiment [1], above 30 µM; at Histone deacetylase 3 it was above 30 µM; against Histone deacetylase 1, above 200 µM. The IC50 is above 30 µM at Histone deacetylase 5, above 30 µM on Histone deacetylase 9, above 200 µM against Histone deacetylase 8 and above 30 µM against Histone deacetylase 11.
